Measurements: PubChem BioAssay (NCI)
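Method: 48-hour compound exposure of cells in 96-well plates, five concentrations, linear interpolation of endpoints. The concentration for full growth arrest is given as TGI.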

Key:
Assay in all cases: NCI-60 cell line screen, 48 h
UACC-62 melanoma = test system: UACC-62 melanoma
OVCAR-8 ovarian = test system: OVCAR-8 ovarian
RXF 393 renal = test system: RXF 393 renal
HOP-62 NSCLC = test system: HOP-62 NSCLC
OVCAR-3 ovarian = test system: OVCAR-3 ovarian
786-0 renal = test system: 786-0 renal
MALME-3M melanoma = test system: MALME-3M melanoma
COLO 205 colon = test system: COLO 205 colon
UACC-257 melanoma = test system: UACC-257 melanoma
NCI-H226 lung = test system: NCI-H226 lung
CAKI-1 renal = test system: CAKI-1 renal
MDA-MB-231 breast = test system: MDA-MB-231 breast
MDA-MB-435 = test system: MDA-MB-435

SMILES	TGI (UACC-62 melanoma)	TGI (OVCAR-8 ovarian)	TGI (RXF 393 renal)	TGI (HOP-62 NSCLC)	TGI (OVCAR-3 ovarian)	TGI (786-0 renal)	TGI (MALME-3M melanoma)	TGI (COLO 205 colon)	TGI (UACC-257 melanoma)	TGI (NCI-H226 lung)	TGI (CAKI-1 renal)	TGI (MDA-MB-231 breast)	TGI (MDA-MB-435)
NC12CC3CC(C1)CC(Cl)(C3)C2	> 100 µM	> 100 µM	> 100 µM	> 100 µM	> 100 µM	> 100 µM	> 100 µM	> 100 µM	> 100 µM				
COc1ccc(C2CCC(Cl)(OC)CC2C=O)cc1 (stereo unspecified)	> 100 µM	> 100 µM	43.9 µM	> 100 µM	> 100 µM	> 100 µM	> 100 µM	> 100 µM	> 100 µM	> 100 µM	> 100 µM		
Cc1cn(CC2=NCC(C)(C)CN2)c(=O)[nH]c1=O	> 100 µM	> 100 µM	> 100 µM	> 100 µM		> 100 µM	> 100 µM	> 100 µM	> 100 µM	> 100 µM		> 100 µM	
Cn1cc2c(=O)n3ncn(-c4ccc(Br)cc4)c3nc2n1	> 100 µM	> 100 µM	> 100 µM		> 100 µM	> 100 µM	> 100 µM	> 100 µM	> 100 µM	> 100 µM	> 100 µM	> 100 µM	> 100 µM
COC(=O)[C@H]1C=C[C@@H](C)n2c(=O)c3ccccc3c(=O)n21		> 100 µM	> 100 µM	> 100 µM	> 100 µM	> 100 µM	> 100 µM	> 100 µM	> 100 µM	> 100 µM	> 100 µM		
CC(=O)OC1OC2C(NC(=O)OC(C)(C)C)C1CC2(OCc1ccccc1)OCc1ccccc1 (stereo unspecified)	42.2 µM	> 100 µM	32.2 µM	76.3 µM	38.5 µM	56.8 µM	20.8 µM	41.5 µM	37.9 µM	56.5 µM	> 100 µM		
CCOC(=O)C1=C(O)c2ccccc2C(=O)C1=O	> 100 µM	> 100 µM	> 100 µM	> 100 µM	> 100 µM	> 100 µM	> 100 µM	> 100 µM	> 100 µM	> 100 µM	> 100 µM		
CC1=CCC[C@@](C)(O)[C@@H]2C[C@H]3C(CSc4ccccc4)C(=O)O[C@H]3[C@@H](O2)[C@H](C)CCC1 (stereo partly specified)	34.1 µM	32.4 µM	30.4 µM	34.5 µM	26.5 µM	67.5 µM	32.1 µM	40.4 µM	39.3 µM		64.6 µM	> 100 µM	72 µM
CN(C)c1ncnc2c1ncn2C1C=CC(COS(N)(=O)=O)C1 (stereo unspecified)	> 100 µM	> 100 µM	> 100 µM	> 100 µM	> 100 µM	> 100 µM	> 100 µM	> 100 µM	> 100 µM		> 100 µM		> 100 µM
Cc1ccc(S(=O)(=O)[N-]C2C(=O)c3ccccc3C(=O)C2[n+]2cccc(C(N)=O)c2)cc1 (stereo unspecified)	> 100 µM	> 100 µM	> 100 µM	> 100 µM	> 100 µM	> 100 µM		59.4 µM	> 100 µM	> 100 µM	> 100 µM	> 100 µM	> 100 µM
OCC(O)COc1c(Cl)ccc(Cl)c1Cl (stereo unspecified)	> 100 µM	> 100 µM	> 100 µM	> 100 µM	> 100 µM	> 100 µM	> 100 µM	> 100 µM	> 100 µM	> 100 µM	> 100 µM		
COC(=O)/C(C#N)=C1\NC(=O)CC(c2ccccc2)C1C#N (stereo unspecified)	> 100 µM	> 100 µM	> 100 µM	> 100 µM	> 100 µM	> 100 µM	> 100 µM	> 100 µM	> 100 µM	> 100 µM	> 100 µM	> 100 µM	
COc1ccc(/C=C2\N=C(c3ccccc3)N(Nc3nnc(NN4C(=O)/C(=C/c5ccc(OC)cc5)N=C4c4ccccc4)c4ccccc34)C2=O)cc1	> 100 µM	> 100 µM	> 100 µM	> 100 µM		> 100 µM		> 100 µM	> 100 µM	> 100 µM			
CN(C)CCCSc1c2ccccc2nc2cc(NCC(=O)Nc3ccccc3-c3ccccc3NC(=O)CNc3ccc4c(SCCCN(C)C)c5ccccc5nc4c3)ccc12	> 100 µM	> 100 µM	> 100 µM	> 100 µM	> 100 µM	> 100 µM	> 100 µM	> 100 µM	> 100 µM	> 100 µM	> 100 µM		
NC(=O)C12C3C4C1C1C2C3C41C(N)=O (stereo unspecified)	> 100 µM	> 100 µM	> 100 µM	> 100 µM	> 100 µM	> 100 µM		> 100 µM	> 100 µM	> 100 µM	> 100 µM		
CC(=O)c1c(O)ccc2c1CC(CC=O)O2 (stereo unspecified)	> 100 µM	> 100 µM	> 100 µM	> 100 µM	> 100 µM	> 100 µM	> 100 µM	> 100 µM	> 100 µM	> 100 µM	> 100 µM		
COC1=CC(C2c3cc4c(cc3[C@@H](Nc3ccc([N+](=O)[O-])cc3)C3COC(=O)[C@H]23)OCO4)=CC(=O)C1=O (stereo partly specified)	8.96 µM	40.4 µM	86.8 µM	2.47 µM	54.9 µM	4.86 µM	26.4 µM	73.2 µM	> 100 µM	6.65 µM	25.6 µM		
CC1=Nc2c([nH]c(=S)[nH]c2=O)NC(c2ccc(Cl)c(Cl)c2)C1 (stereo unspecified)	> 63.7 µM	38.2 µM	38.2 µM	> 100 µM	38.3 µM	32.5 µM	> 100 µM	32.7 µM	47 µM	48.8 µM	> 100 µM		
Cc1nccc2c1cnc1ccnn12		> 100 µM	> 100 µM	> 100 µM	> 100 µM	> 100 µM	> 100 µM	> 100 µM	> 100 µM	> 100 µM	> 100 µM		
CCOC(=O)c1nnsc1NC(=O)Nc1ccc(Cl)cc1	> 100 µM	41.2 µM	> 100 µM	> 100 µM	> 100 µM	42.4 µM	> 100 µM	> 100 µM	> 100 µM	> 100 µM		52.7 µM	> 100 µM
